Here are results for three compounds from patent US20100056563A1, “NOVEL 1.8-NAPHTHYRIDINE COMPOUNDS” (priority 2007, published 2010).

The target in the assay is T1, FLAG-tagged full length PHD2 (Homo sapiens, UniProt Q9GZT9).
T1 construct: FLAG-tagged full length PHD2; FLAG; made in house; host or cells: baculovirus-infected Sf9 cells
T1 sequence (Q9GZT9 whole entry): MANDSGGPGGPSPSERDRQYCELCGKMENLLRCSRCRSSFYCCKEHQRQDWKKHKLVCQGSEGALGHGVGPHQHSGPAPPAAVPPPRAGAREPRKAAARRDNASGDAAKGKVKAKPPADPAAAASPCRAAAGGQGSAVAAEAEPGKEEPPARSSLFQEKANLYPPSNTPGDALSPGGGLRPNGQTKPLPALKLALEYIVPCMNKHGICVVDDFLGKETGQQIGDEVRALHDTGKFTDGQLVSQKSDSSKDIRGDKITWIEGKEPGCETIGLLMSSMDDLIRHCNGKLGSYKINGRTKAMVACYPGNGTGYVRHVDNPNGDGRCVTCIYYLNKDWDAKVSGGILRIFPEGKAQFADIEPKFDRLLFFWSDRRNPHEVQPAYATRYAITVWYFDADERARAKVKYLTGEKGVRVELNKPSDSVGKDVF
The assay can be described thus: HIF-PHD2 time resolved fluorescence inhibition assay (HIF-1α peptide hydroxylation, VHL complex detection). The class given is biochemical. The following applies: 0.2 μM 2-oxoglutarate, 0.5 μM HIF-1α peptide, 2 hr at room temperature. As to the method:
To each well of a 96-well plate was added […] of test compound in DMSO and 20 μl of assay buffer (50 mM Tris pH 7.4/0.01% Tween-20/0.1 mg/ml bovine serum albumin/10 μM ferrous sulfate/1 mM sodium ascorbate/20 μg/ml catalase) containing 0.15 μg/ml FLAG-tagged full length PHD2 expressed in and purified from baculovirus-infected Sf9 cells. After a […] preincubation at room temperature, the enzymatic reactions were initiated by the addition of 4 μL of substrates (final concentrations of 0.2 μM 2-oxoglutarate and 0.5 μM HIF-1α peptide biotinyl-DLDLEMLAPYIPMDDDFQL). After 2 hr at room temperature, the reactions were terminated and signals were developed by the addition of a 25 μL quench/detection mix to a final concentration of 1 mM ortho-phenanthroline, 0.1 mM EDTA, 0.5 nM anti-(His)6 LANCE reagent (Perkin-Elmer Life Sciences), 100 nM AF647-labeled streptavidin (Invitrogen), and 2 μg/ml (His)6-VHL complex (S. Tan (2001) Protein Expr. Purif. 21, 224-234). The ratio of time resolved fluorescence signals at 665 and 620 nm was determined, and percent inhibition was calculated relative to an uninhibited control sample run in parallel.
The compound `Cc1nc(Cn2c(=O)c(C(=O)NCC(=O)O)c(O)c3cccnc32)sc1C` [Example 26, N-({1-[(4,5-Dimethyl-1,3-thiazol-2-yl)methyl]-4-hydroxy-2-oxo-1,2-dihydro-1,8-naphthyridin-3-yl}carbonyl)glycine] came in with an IC50 of 1.3 nM.

In turn, `O=C(O)CNC(=O)c1c(O)c2cc(Cl)cnc2n(Cc2ccc(C(F)(F)F)nc2)c1=O` [Example 29, {[(6-Chloro-4-hydroxy-2-oxo-1-{[6-(trifluoromethyl)pyridin-3-yl]methyl}-1,2-dihydro-1,8 naphthyridin-3-yl)carbonyl]amino}acetic acid] gave a concentration for half-maximal inhibition (IC50) of 0.65 nM. Next, `C#CCn1c(=O)c(C(=O)NCC(=O)O)c(O)c2cccnc21` [Example 18, N-[(4-Hydroxy-2-oxo-1-prop-2-yn-1-yl-1,2-dihydro-1,8-naphthyridin-3-yl)carbonyl]glycine]: 21 nM.

For orientation: IC50 means the point on the concentration scale where inhibition reaches its midpoint. A low value points to greater potency in that assay.
